Laboratory results from paper PMC11726677, “Eradication of Therapy-Resistant Cancer Stem Cells by Novel Telmisartan Derivatives” (Journal of Medicinal Chemistry, 2024).
Several values for one entry are separate records, joined by “and”; a condition that tells them apart may be missing. Equal values may be shown once. Marks after values point to notes of the source that are not given here.

Legend:
[1] = tested on: IGROV-1 SP cells; assay: Chemosensitizing to paclitaxel: metabolic activity of IGROV-1 SP cells (MTT); type: cell-based, human; conditions: compound 10 μM + PTX 10 nM, 72 h
Procedure: The chemosensitizing efficacy was investigated in the ovarian and prostate cancer cell lines using the above-described metabolic activity assay. Paclitaxel (PTX) served as a reference (CTR) in A2780 V SP and IGROV-1 SP cells and docetaxel (DTX) in PC3-DR and D145-DR cells.
COS-7 (2 × 10^3 cells per well), IGROV-1 SP (2.5 × 10^3 cells per well), A2780 V SP (1.5 × 10^3 cells per well), PC3-DR (4 × 10^3 cells per well), and DU145-DR (3 × 10^3 cells per well) cells were seeded in 96-well plates in triplicates and after 24 h, the compounds were added at the respective concentrations. K562-R and K562 cells (2 × 10^4 cells per well), were treated with the compounds 2 h after seeding. […] A modified MTT colorimetric assay (EZ4U kit, Biomedica) was used to determine the metabolic activity of the tested cells, according to the manufacturer’s instructions. Absorbance was measured and the optical density of the respective FCS-containing medium and of the substrate was subtracted to exclude nonspecific staining. Metabolic activity in the absence of the compounds (CTR, DMSO) was set to 100% as reference.

[2] = Body weight / tolerability in the K562-R xenograft study; conditions: for Body Weight, individual animal / Body Weight, group mean: PO QD x 30 days (imatinib 50 mg/kg, 7c 10 mg/kg); for Body Weight, individual animal: animals No. 1–7; for Body Weight, group mean: n = 7
[3] = tested on: human CML K562-R xenograft; assay: Efficacy in human CML K562-R xenograft model; type: in vivo, female NOD/SCID mice; set-up: % T/C (treatment/control) / % TGI (tumor growth inhibition): concentration or dose not given beside the values; conditions: for Tumor Volume, individual animal / Tumor Volume, group mean: PO QD x 30 days (imatinib 50 mg/kg, 7c 10 mg/kg); for % T/C (treatment/control): mean tumor volume treated vs control; for % TGI (tumor growth inhibition): vs vehicle control
Procedure: The animals were checked daily for humane end points. Body weight was measured and recorded daily after dosing.
The % T/C value, defined as the ratio of the mean tumor volume for the treated versus control group, was calculated as % T/C = (Tn/Cn) × 100%; whereas Tn: denotes mean tumor volume of the treated group on day n, and Cn: denotes mean tumor volume of the control group on day n. The optimal value is the minimal % T/C ratio, which reflects the maximal tumor growth inhibition achieved.
TGI (Tumor growth inhibition) was calculated by the following formula [drawing 1] [drawing 2]
Whereas: Tn: denotes the mean tumor volume of the treated group on day n; T1: denotes the mean tumor volume of the treated group on day 1; Cn: denotes the mean tumor volume of the vehicle control group on day n; and C1: denotes the mean tumor volume of the vehicle control group at day 1.

In the case of `CCCc1nc2c(C)cc(-c3nc4ccccc4n3C)cc2n1Cc1ccc(-c2ccccc2C(=O)OC)cc1` [7b, Methyl 4′-((1,7′-dimethyl-2′-propyl-1H,3′H-[2,5′-bibenzo[d]imidazole]-3′-yl)methyl)-[1,1′-biphenyl]-2-carboxylate], the “viability / antimetabolic effect in combination with PTX” value [1] is reported as “inactive”.
With `CCCc1nc2c(C)cc(-c3nc4ccccc4n3C)cc2n1Cc1ccc(-c2ccccc2C(N)=O)cc1` [7c, 4′-((1,7′-Dimethyl-2′-propyl-1H,3′H-[2,5′-bibenzo[d]imidazole]-3′-yl)methyl)-[1,1′-biphenyl]-2-carboxamide] the tolerability ([2]; 7c 10 mg/kg, imatinib 50 mg/kg, PO QD × 30 days) was “well tolerated”, the “Body Weight, individual animal” value ([2]; Day 1) was 23 g and 25 g and 26 g and 21 g and the “Body Weight, group mean” value ([2]; Day 1) was 24.1 g. For the same molecule, the “Body Weight, individual animal” value ([2]; Day 5) was 23 g and 24 g and 25 g and 26 g and 21 g, the “Body Weight, individual animal” value ([2]; Day 8) was 23 g and 22 g and 26 g and 28 g and 24 g and the “Body Weight, group mean” value ([2]; Day 8) was 24.0 g. The “Body Weight, individual animal” value ([2]; Day 12) was 23 g and 22 g and 25 g and 27 g and 24 g, the “Body Weight, individual animal” value ([2]; Day 15) was 23 g and 22 g and 25 g and 27 g and 21 g and the “Body Weight, group mean” value ([2]; Day 15) was 23.4 g. For the same molecule, the “Body Weight, individual animal” value ([2]; Day 19) was 23 g and 25 g and 22 g and 28 g, the “Body Weight, individual animal” value ([2]; Day 22) was 24 g and 25 g and 23 g and 27 g and 22 g and the “Body Weight, group mean” value ([2]; Day 22) was 24.1 g. The “Body Weight, individual animal” value ([2]; Day 26) was 25 g and 26 g and 22 g and 27 g and 23 g, the “Body Weight, individual animal” value ([2]; Day 29) was 23 g and 26 g and 21 g and 28 g and 24 g and 22 g and the “Body Weight, individual animal” value ([2]; Day 33) was 24 g and 27 g and 22 g and 26 g and 28 g and 23 g. For the same molecule, the “Body Weight, group mean” value ([2]; Day 33) was 25.1 g, the “Tumor Volume, individual animal” value ([3]; Day 1, animals No. 1–7) was 171 mm3 and 163 mm3 and 155 mm3 and 149 mm3 and 140 mm3 and 136 mm3 and 124 mm3 and the “Tumor Volume, group mean” value ([3]; Day 1, n = 7) was 148 mm3. The “Tumor Volume, individual animal” value ([3]; Day 5, animals No. 1–7) was 197 mm3 and 204 mm3 and 162 mm3 and 148 mm3 and 149 mm3 and 187 mm3 and 130 mm3, the “Tumor Volume, group mean” value ([3]; Day 5, n = 7) was 168 mm3 and the “% T/C (treatment/control)” value ([3]; Day 5) was 90%. For the same molecule, the “% TGI (tumor growth inhibition)” value ([3]; Day 5) was 46%, the “Tumor Volume, individual animal” value ([3]; Day 8, animals No. 1–7) was 202 mm3 and 360 mm3 and 167 mm3 and 154 mm3 and 155 mm3 and 464 mm3 and 133 mm3 and the “Tumor Volume, group mean” value ([3]; Day 8, n = 7) was 234 mm3. For the same molecule, the “% T/C (treatment/control)” value ([3]; Day 8) was 96%, the “% TGI (tumor growth inhibition)” value ([3]; Day 8) was 9% and the “Tumor Volume, individual animal” value ([3]; Day 12, animals No. 1–7) was 213 mm3 and 711 mm3 and 201 mm3 and 158 mm3 and 164 mm3 and 949 mm3 and 143 mm3. The “Tumor Volume, group mean” value ([3]; Day 12, n = 7) was 363 mm3, the “% T/C (treatment/control)” value ([3]; Day 12) was 88% and the “% TGI (tumor growth inhibition)” value ([3]; Day 12) was 18%. For the same molecule, the “Tumor Volume, individual animal” value ([3]; Day 15, animals No. 1–7) was 216 mm3 and 991 mm3 and 317 mm3 and 165 mm3 and 168 mm3 and 1349 mm3 and 143 mm3, the “Tumor Volume, group mean” value ([3]; Day 15, n = 7) was 478 mm3 and the “% T/C (treatment/control)” value ([3]; Day 15) was 75%. The “% TGI (tumor growth inhibition)” value ([3]; Day 15) was 32%, the “Tumor Volume, individual animal” value ([3]; Day 19, animals No. 1–7) was 207 mm3 and 1716 mm3 and 521 mm3 and 192 mm3 and 174 mm3 and 1858 mm3 and 148 mm3 and the “Tumor Volume, group mean” value ([3]; Day 19, n = 7) was 688 mm3. For the same molecule, the “% T/C (treatment/control)” value ([3]; Day 19) was 84%, the “% TGI (tumor growth inhibition)” value ([3]; Day 19) was 20% and the “Tumor Volume, individual animal” value ([3]; Day 22, animals No. 1–7) was 181 mm3 and 2448 mm3 and 891 mm3 and 198 mm3 and 180 mm3 and 2149 mm3 and 149 mm3. The “Tumor Volume, group mean” value ([3]; Day 22, n = 7) was 885 mm3, the “% T/C (treatment/control)” value ([3]; Day 22) was 79% and the “% TGI (tumor growth inhibition)” value ([3]; Day 22) was 24%. The “Tumor Volume, individual animal” value ([3]; Day 26, animals No. 1–7) was 181 mm3 and 2912 mm3 and 1522 mm3 and 206 mm3 and 188 mm3 and 2607 mm3 and 156 mm3, the “Tumor Volume, group mean” value ([3]; Day 26, n = 7) was 1110 mm3 and the “% T/C (treatment/control)” value ([3]; Day 26) was 69%. For the same molecule, the “% TGI (tumor growth inhibition)” value ([3]; Day 26) was 34%, the “Tumor Volume, individual animal” value ([3]; Day 29, animals No. 1–7) was 184 mm3 and 3497 mm3 and 1803 mm3 and 214 mm3 and 196 mm3 and 2946 mm3 and 163 mm3 and the “Tumor Volume, group mean” value ([3]; Day 29, n = 7) was 1286 mm3. For the same molecule, the “% T/C (treatment/control)” value ([3]; Day 29) was 65%, the “% TGI (tumor growth inhibition)” value ([3]; Day 29) was 38% and the “Tumor Volume, individual animal” value ([3]; Day 33, animals No. 1–7) was 200 mm3 and 4707 mm3 and 2923 mm3 and 214 mm3 and 196 mm3 and 3520 mm3 and 172 mm3. The “Tumor Volume, group mean” value ([3]; Day 33, n = 7) was 1705* mm3, the “% T/C (treatment/control)” value ([3]; Day 33) was 63% and the “% TGI (tumor growth inhibition)” value ([3]; Day 33) was 39%. For the same molecule, the “Tumor Weight, individual animal” value ([3]; harvested on day 33, animals No. 1–7) was 0.078 g and 3.807 g and 2.646 g and 0.268 g and 0.057 g and 4.319 g and 0.060 g and the “Tumor Weight, group mean” value ([3]; harvested on day 33, n = 7) was 1.600 g.
